In US8535740B2, “Compositions from Nigella sativa” (priority 2002, dated 2013):

How the values were obtained:
[1] = tested on: AMPK; assay: AMPK activation (pT172-AMPK) in C2C12 myocytes; assay type: cell-based, mouse; details: 1 mM
Protocol: Cell culture—Mouse C2C12 myoblasts were obtained from American Type Culture Collection (Manassas, Va.), and were maintained in Dulbecco's modified Eagle's medium (DMEM) supplemented with 10% fetal bovine serum at 37° C. under a humidified atmosphere of 5% CO2.
C2C12 cells were seeded at an initial density of 6×10^4 cells/cm^2 in 24-well plates. For two days, the cells were allowed grow to reach confluence. Following confluence, the cells were forced to differentiate into myocytes by culturing in DMEM supplemented with 2% horse serum for seven days.
Treatment—On Day 8 to 10 post differentiation, C2C12 myocytes were incubated in serum-free DMEM plus 0.5% BSA (bovine serum albumin) for three hours. […]
Measuring activated AMPKa—pT^172-AMPK was quantified using the Biosource AMPK Immunoassay Kit (Camarillo, Calif.) without modification. Protein content of the cell lysates was determined with the Active Motif fluorescent protein assay reagent (Carlsbad Calif., Hoefelschweiger, B. K., Duerkop, A., and Wolfbeis, O. S. Novel type of general protein assay using a chromogenic and fluorogenic amine-reactive probe. Anal Biochem 2005, 344, 122-9). A Packard Fluorocount spectrofluorometer (Model #BF 10000, Meridan, Conn.) was used for protein determination and a MEL312e BIO-KINETICS READER (Bio-Tek Instruments, Winooski, Vt.) was used for quantification of pT^172-AMPK. […]

[2] = tested on: Caco-2 monolayers; assay: t10-CLA-induced loss of transepithelial electrical resistance in Caco-2 monolayers; assay type: cell-based, human; details: 50 μM t10-CLA stimulus, positive control set to 100; each material at its tabulated concentration (TQ 5.0, NS8 0.11, NS9 0.99, NS10 0.012, NSSpent#2 0.0005 μg TQ equivalents/mL; Spent#1 5 μg/mL)
From the text: Caco-2 Cells-The protocol for growing and differentiation the human Caco-2 colon andenocarcinoma cells was a modification of Protocol 3 as described by Yamashita et al. [[…]., and Furuyama, Y. (2002) New and better protocols for a short-term Caco-2 cell culture system, J Pharm Sci 91, 669-679]. Caco-2 Human Colon Adenocarcinoma cells were obtained from ATCC (Rockville, Md.; catalog #HTB-37) and maintained in a growth media: DMEM (Dulbecco's Modified Eagles Medium 1×) containing L-glutamine, glucose; Cellgro catalog #35-010CV with the following additions: (1) Penicillin (5,000 IU/mL)/Streptomycin (5,000 μg/mL) Cellgro catalog #30-001C1, (2) 10% FBS-Fetal Bovine Serum, Characterized; Hyclone catalog #SH30071.3, and (3) 1% NEAA-Non Essential Amino Acids; Cellgro catalog #25-025-CI; cells were cultured at 37 C in a humidified air-5% CO2 atmosphere in T175 flasks. Differentiation of Caco-2 cells to intestinal epithelial cells-BIOCOAT^R HTS Caco-2 Assay System kits (Becton Dickinson, N.J.; catalog #354801) consisting of 24-well fibrillar collagen coated inserts and feeder trays were used in all experiments and plated as follows. Media was removed from the T175 flasks and cells were washed with 10 mLs PBS (phosphate buffered saline 1× without Ca^++, without Mg^++; Cellgro #25-053-CI). PBS was removed and 5 mL of Trypsin/EDTA (1×, 0.25% Trypsin/2.21 mM EDTA in HBSS; Cellgro #25-053-CI) were added to the flask and the flask placed at 37 C until cells were visibly floating, approximately 3-5 minutes. Five mL of growth media were added to the flask to neutralize the trypsin. This solution was then transferred to a sterile 50 mL tube. Eight μL were sampled and placed in a hemocytometer for counting under a microscope. Five-hundred μL of cell solution were placed in the upper chamber of each insert so that the final density per well was at least 6.6×10^5 cells/cm^2. Thirty-five mL of growth media were then added to the feeder tray and plate incubated at 37 C with 5% CO2 and 100% humidity for 20-24 hours. […]

[3] = tested on: IL-6 secretion in 3T3-L1 adipocytes; assay: IL-6 secretion in t10-CLA-stimulated 3T3-L1 adipocytes; assay type: cell-based, murine
Protocol: Treatment—Test materials were added four hours prior to the addition of t10-CLA at a concentration of 50 μM. Following overnight incubation, the supernatant media were sampled for determination of IL-6 and adiponectin. Interleukin-6 assay—The IL-6 secreted into the medium in response to […] stimulation was quantified using the Quantikine® Mouse IL-6 Immunoassay kit with no modifications (R&D Systems, Minneapolis, Minn.). […] All supernatant media samples were diluted 1:30 for quantification. Statistical Calculations and Interpretation—Test materials and were assayed in duplicate, while solvent controls were replicated eight times. IL-6 and adiponectin secretion were represented relative to the IL-6 and adiponectin secretion of the t10-CLA only controls as the IL-6 and adiponectin index and differences among the means were analyzed by the student's t-test assuming a five percent probability of a type I error (Excel; Microsoft, Redmond, Wash.).

[4] = tested on: adiponectin secretion in 3T3-L1 adipocytes; assay: Adiponectin secretion in t10-CLA-stimulated 3T3-L1 adipocytes; assay type: cell-based, murine
Protocol: Treatment—Test materials were added four hours prior to the addition of t10-CLA at a concentration of 50 μM. Following overnight incubation, the supernatant media were sampled for determination of IL-6 and adiponectin. Adiponectin assay—The adiponectin secreted into the medium was quantified using the Mouse Adiponectin Quantikine® Immunoassay kit with no modifications (R&D Systems, Minneapolis, Minn.). […] Statistical Calculations and Interpretation—Test materials and were assayed in duplicate, while solvent controls were replicated eight times. IL-6 and adiponectin secretion were represented relative to the IL-6 and adiponectin secretion of the t10-CLA only controls as the IL-6 and adiponectin index and differences among the means were analyzed by the student's t-test assuming a five percent probability of a type I error (Excel; Microsoft, Redmond, Wash.).

[5] = relative to t10-CLA only control (100), 50 μM t10-CLA, overnight, each material at its tabulated concentration

Row | Structure (SMILES) | increase in pT172-AMPK relative to DMSO negative controls ([1]; average over ten independent assays, 95% CI=1.26-2.21) | AMPK activation ([1]; in assays run with N. sativa supercritical CO2 extracts) | Relative Loss of TEER [2] | increase in IL-6 secretion relative to controls ([3]; 50 μM) | IL-6 Index [3, 5] | reduction in adiponectin secretion relative to controls ([4]; 50 μM) | Adiponectin Index [4, 5]
1 | NC(=O)c1ncn([C@@H]2O[C@H](CO)[C@@H](O)[C@H]2O)c1N [AICAR, 5-Aminoimidazole-4-carboxamide ribonucleoside] | 1.67 fold | 1.45 fold | – | – | – | – | –
2 | CCCCC/C=C\C=C\CCCCCCCCC(=O)O [t10-CLA, trans-10, cis12-Conjugated Linoleic Acid] | – | – | 100 ± 5.81 | 8 fold | 100 ± 11 | 65% | 100 ± 14
